Laboratory results from publication PMC8224453, “A New PqsR Inverse Agonist Potentiates Tobramycin Efficacy to Eradicate Pseudomonas aeruginosa Biofilms” (Advanced Science, 2021).
In brackets after ≈: the same amount, converted by molar mass. Read-outs that look alike come from different tables or passages of the source.

Key:
[1] = Metabolic stability half-life (matrix not given); format: in vitro ADME; conditions: matrix not stated; read-out: metabolic stability half-life t 1/2
Procedure: First, we evaluated the most promising compounds considering in vitro pharmacokinetic properties such as solubility and metabolic stability. […] Compounds 4 and 19 were moderately stable with half‐lives of 10 and 19 min, respectively.

[2] = tested on: pyocyanin production in PA14 wt; test: Pyocyanin assay in PA14 wt; format: cell-based; conditions: Pseudomonas aeruginosa, PA14, read-out: IC50 pyocyanin
Procedure: The pyocyanin inhibitory effect of the synthesized compounds and the compound (4) loaded SqNPs on PA14 wt were investigated by pyocyanin assay as described in previous work.[2,5] Briefly, PA14 wt was grown in PPGAS medium, overnight, at 37 °C, shaking at 200 rpm. The bacterial suspension was then centrifuged at 7.450 g, washed twice and diluted to a final OD600 (absorption at 600 nm) of 0.02 (2∙10^7 CFU/mL) in fresh PPGAS. 1.5 mL of the […]
(1 picture or pasted object on this page, not shown here) […]
culture was distributed in each well of the 24 well-plate. The free synthesized QSI prepared in DMSO, compound (4) loaded SqNPs were supplemented to bacteria-containing wells (1:100 dilutions). PA14 wt treated with either PBS or drug-free SqNPs (200 μg/mL) served as controls. Following 16 h incubation under aerobic conditions, pyocyanin in 900 μL of bacteria culture was extracted with chloroform and re-extracted with 0.2 M HCl. Pyocyanin production level was measured as the absorption at 520 nm, which was normalized to cell growth measured as OD600. 0.2 M HCl served as blank samples. Three independent experiments were conducted in triplicate. Non-linear regression analysis was performed using […]
(4) loaded SqNPs on PA14 wt. The pyocyanin inhibitory efficacy was improved by a factor of […]
It is noted that as reported in our prior
Figure S2. The production of pyocyanin levels compared to control PA14 wide type (wt) of the samples treated with 200 μg/mL drug free SqNPs. Three independent experiments were conducted in triplicate. […]
(also on this page, place not known: ( 4) -containing -free bacteria re -extracted compo und ( 4) (IC 50 nM ) (IC 50 nM ). drug P A14 5,6,7,8 -tetradeutero-2-heptyl-4(1H)-quinolone standa rd -40 -20 0 20 40 60 80 100 120 0.005 0.05 0.5 pyo production inhibition [%] Compound concentration loaded SqNPs [µM] IC50 = 100 ± 0.018 [nM])

[3] = Kinetic turbidimetric solubility assay; format: physicochemical; conditions: PBS, aqueous buffer, kinetic from dmso stock, read-out: Kinetic solubility S kin
Procedure: 5.4. Kinetic Turbidimetric Solubility Assay
The desired compounds were sequentially diluted in DMSO in a 96-well plate. A 3 µL of each well were transferred into another three 96-well plates, followed by addition of 147 µL of PBS. Plates were shaken for 5 min at 600 rpm at room temperature (r.t.), and the absorbance at 620 nm was measured. Absorbance values were normalized by blank […]
subtraction and plotted using GraphPad Prism 8.4.2 (GraphPad Software, San Diego, CA, […]

PqsR [4] = target: T1, PqsR (Pseudomonas aeruginosa, UniProt Q9I4X0); test: PqsR β-galactosidase reporter-gene assay in E. coli DH5α; format: cell-based; conditions: for IC50 PqsR: E. coli reporter-gene assay, result in words
T1 construct: which expresses PqsR and the β-galactosidase LacZ under the control of the pqsA promoter; expressed in transfected cells; host or cells: E. coli DH5α carrying plasmid pEAL08-2
Procedure: 3. Primary Activity Assays
The inverse agonistic/antagonistic activity of potential PqsR ligands was evaluated in a β-galactosidase reporter gene assay in E. coli as previously described.[3] In short, test compounds were co-incubated with E. coli DH5α cells containing the plasmid pEAL08-2,[4] which expresses PqsR and the β-galactosidase LacZ under the control of the pqsA promoter.
The inverse agonistic/antagonistic activity of compounds was measured in the presence of 50 nM PQS. After incubation, galactosidase activity was quantified photometrically and expressed as ratio of controls. The given IC50 values represent the mean of at least two independent experiments using at least eight different concentrations of test compound with n = 4. Non-linear regression analysis was performed using OriginPro 2020. […]

PqsR [5] = target: T1, PqsR; conditions: read-out: IC50 (PqsR); Figure 1B, earlier hits; cited from earlier work

T1 sequence (Q9I4X0 whole entry): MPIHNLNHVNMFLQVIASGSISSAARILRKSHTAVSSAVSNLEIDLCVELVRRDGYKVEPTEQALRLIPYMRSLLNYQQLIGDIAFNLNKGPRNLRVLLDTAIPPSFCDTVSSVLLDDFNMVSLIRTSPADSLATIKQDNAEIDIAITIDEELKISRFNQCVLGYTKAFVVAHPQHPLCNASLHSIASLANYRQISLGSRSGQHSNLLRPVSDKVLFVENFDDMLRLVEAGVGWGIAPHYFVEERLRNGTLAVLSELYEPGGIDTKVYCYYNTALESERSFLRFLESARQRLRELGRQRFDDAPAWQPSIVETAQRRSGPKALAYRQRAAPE

Row | Compound | IC50 [2] [nM] | IC50 (PqsR [4]) [nM] | other results
1 | FC(F)(F)Oc1ccc(-n2cc(CNc3ccnc(C(F)(F)F)c3)nn2)cc1Cl [Compound 18] | 438 | 15 | half-life [1]: 55 min; solubility kinetic at 5 min [3]: 31.3 µM (≈ 13.7 µg/mL)
2 | Fc1cccc(-n2cc(CNc3ccnc(C(F)(F)F)c3)nn2)c1 [Compound 5] | > 5000 | – | IC50 PqsR (PqsR [4]): inactive
3 | N#Cc1ccc(-n2cc(CNc3ccnc(C(F)(F)F)c3)nn2)cc1 [Compound 14] | > 10000 | 655 | –
4 | Fc1ccc(-n2cc(CNc3ccnc(C(F)(F)F)c3)nn2)cc1 [Compound 3] | > 5000 | 196 | –
5 | FC(F)(F)c1cc(NCc2cn(-c3ccccc3Cl)nn2)ccn1 [Compound 7] | > 5000 | – | IC50 PqsR (PqsR [4]): inactive
6 | Nc1cccc(C(F)(F)F)n1 [Compound 1] | – | – | IC50 (PqsR [5]): 33.1 µM
7 | FC(F)(F)Oc1ccc(-n2cc(CNc3ccnc(C(F)(F)F)c3)nn2)cc1 [Compound 12] | 1180 | 30 | –
8 | FC(F)(F)c1cc(NCc2cn(-c3ccc(Cl)cc3)nn2)ccn1 [Compound 9] | 7730 | 79 | –
9 | Nc1cc(NCc2cn(-c3ccc(Oc4ccccc4)cc3)nn2)cc(C(F)(F)F)n1 [Compound 20] | 351 | – | solubility kinetic at 5 min [3]: 13 µM (≈ 5.54 µg/mL)
10 | COc1ccc(-n2cc(CNc3ccnc(C(F)(F)F)c3)nn2)cc1 [Compound 11] | 2500 | 81 | –
11 | FC(F)(F)c1cc(NCc2cn(-c3ccc(Cl)c(Cl)c3)nn2)ccn1 [Compound 16] | 354 | 24 | –
12 | FC(F)(F)c1cc(NCc2cn(-c3cccc(Cl)c3)nn2)ccn1 [Compound 8] | > 2500 | 123 | –
13 | FC(F)(F)c1cc(NCc2cn(-c3ccc(Oc4ccccc4)c(Cl)c3)nn2)ccn1 [Compound 19] | 181 | 12 | half-life [1]: 19 min
14 | Oc1ccc(-n2cc(CNc3ccnc(C(F)(F)F)c3)nn2)cc1 [Compound 10] | – | – | IC50 PqsR (PqsR [4]): inactive ^a)
15 | Fc1ccccc1-n1cc(CNc2ccnc(C(F)(F)F)c2)nn1 [Compound 6] | > 10000 | – | IC50 PqsR (PqsR [4]): inactive
16 | FC(F)(F)c1ccc(-n2cc(CNc3ccnc(C(F)(F)F)c3)nn2)cc1 [Compound 13] | > 5000 | 129 | –
17 | FC(F)(F)c1cc(NCc2cn(-c3ccc(Nc4ccccc4)cc3)nn2)ccn1 [Compound 15] | 1060 | 31 | –
